How the values were obtained:
[1] = target: T1, Recombinant human glyoxalase I (Homo sapiens, UniProt Q04760); test: Glyoxalase I inhibition assay (96-well kinetic spectrophotometric assay, 240 nm); format: biochemical; conditions: for IC50: concentration giving 50% of the vehicle control response; for inhibition at 20 µM: 20 μM compound, Vmax relative to control without inhibitor, pH 6.6, 25° C.
T1 construct: made in house; host or cells: E. coli
T1 sequence (Q04760 2-184 limits assumed): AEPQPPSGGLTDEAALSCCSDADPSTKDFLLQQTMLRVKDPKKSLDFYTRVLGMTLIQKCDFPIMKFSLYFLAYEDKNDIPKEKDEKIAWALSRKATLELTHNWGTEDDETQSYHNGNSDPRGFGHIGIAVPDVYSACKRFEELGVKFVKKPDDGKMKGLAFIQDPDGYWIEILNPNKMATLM
Excerpt: Glyoxalase I catalyses the formation of S-D-lactoylglutathione from the hemithioacetal that forms non-enzymatically from methylglyoxal and reduced glutathione (GSH). The standard literature assay is a cuvette-based spectrophotometric method using the product of glyoxalase I, S-D-lactoylglutathione, as the chromophore (240 nm) (Racker, J. Biol. Chem. 190, 685-686 (1951); Principato et al., Biochem International 6, 249-255 (1983)). This literature method was modified for use as a 96-well plate, kinetic assay.
The buffer (0.1M potassium phosphate buffer pH 6.6) and inhibitors are added to appropriate wells of a 96 well plate. Methylglyoxal (prepared in potassium phosphate buffer pH 6.6) and reduced glutathione (prepared in potassium phosphate buffer pH 6.6) are added to appropriate wells. These reagents are incubated for 15 minutes, shaking at room temperature to allow the formation of the hemithioacetal substrate of glyoxalase I. Recombinant human glyoxalase I (expressed in E. coli. and purified by S-hexylglutathione-agarose chromatography as described in Ridderstorm M. and Mannervik B., Biochem J. 314, 463-467 (1996)) is added and the plate is shaken briefly, before being placed in a Spectra Max 190 microplate spectrophotometer (Molecular Devices) at 25° C. Absorbance is monitored at 240 nm, with readings being taken every 30 seconds. The reaction is monitored for 15 minutes and PathCheck® measurements are taken on completion of the assay and the absorbance values normalized to a 1 cm pathlength. The integral software determines the Vmax using the first 20 readings. S-hexylglutathione is used as a positive control in the assays.
Data are expressed as a percentage of the control Vmax, measured in the absence of inhibitor.
Compounds iv, A, ix and E from examples 1 to 4 above respectively were subjected to the above glyoxalase I binding assay at a concentration of 20 μM (20 micromolar). Inhibitory effects are expressed in table 2 as either IC50 values, defined as the concentration, in μM, of the compound that results in 50% of the vehicle control response, or as the percentage of the vehicle control response at the highest concentration of compound tested.

[2] = tested on: HL60 (human promyelocytic leukaemia) cells; test: HL60 cell assay (WST-1 growth inhibition); format: cell-based; conditions: for IC50: concentration giving 50% of the vehicle control response; for % proliferation inhibition in HL60s: highest concentration tested (range 20-1.25 μM), mean of six replicates
Method: HL60 (human promyelocytic leukaemia) cells were seeded (50 μl/well) at a density between 0.25-0.4×10^5/ml in a 96 multi-well plate. Twenty four hours later 50 μl. of the relevant compound dilution made up in culture medium was added to the wells (final concentration range 20-1.25 μM in 0.1% DMSO). After incubating at 37° C. in a 5% CO2 atmosphere for a further 72 hours, assessment of growth inhibitory effects of compounds was measured using a colorimetric assay that is based on the cleavage of the tetrazolium salt WST-1 (Roche) by mitochondrial dehydrogenase in viable cells. WST-1 reagent (10 μl) was added to each well and the plate was agitated for 1 min. After a 3-4 hour incubation at 37° C. in a 5% CO2 incubator the absorbance at 450 nm was read spectrophotometrically, after subtraction of a reference wavelength absorbance, at […].
Compounds iv, ix and E from examples 1, 3 and 4 above respectively were subjected to the above cell assay. Results were the mean of six replicates and were expressed as the percentage of the DMSO vehicle control response. Inhibitory effects are expressed in table 3 in the form of either IC50 values, which was defined as the concentration (μM) of compound that results in 50% of the vehicle control response, or as the % of vehicle control response at the highest concentration of compound tested.

[3] = Homo sapiens, HL-60, 72 hours incubation

inhibition at 20 µM [1]	Structure (SMILES)	other results
	O=C(O)C(Sc1ccc(CN(O)C(=O)c2ccccc2)cc1)c1ccccc1 (stereo not shown) [A, {4-[(Benzoyl-hydroxy-amino)-methyl]-phenylsulfanyl)-phenyl-acetic acid]	IC50 [1]: 9.7 µM
≥ 30%	N#Cc1c(-c2ccc(Cl)cc2)cc(-c2cccs2)nc1SC(C(=O)O)c1ccccc1 (stereo not shown) [Compound 1]	
≥ 30%	COc1ccc(-c2cc(-c3ccccc3)nc(SC(C(=O)O)c3ccccc3)c2C#N)cc1 (stereo not shown) [Compound 2]	
≥ 30%	O=C(CSc1ccccc1C(=O)O)c1ccc(-c2ccccc2)cc1 [Compound 3, 2-(2-Biphenyl-4-yl-2-oxo-ethylsulfanyl)-benzoic acid]	
≥ 30%	COc1ccc(-c2cc(-c3ccccc3)nc(SCc3ccccc3C(=O)O)c2C#N)cc1 [Compound 4]	
≥ 30%	Cc1ccc(-c2cc(-c3ccccc3)c(C#N)c(SCC(=O)Nc3ccc(C(=O)O)cc3)n2)cc1 [Compound 9]	
≥ 30%	COc1ccc(-c2cc(-c3cccs3)nc(SC(C(=O)O)c3ccccc3)c2C#N)cc1 (stereo not shown) [Compound 11]	
≥ 30%	N#Cc1c(-c2cccs2)cc(-c2cccs2)nc1SC(C(=O)O)c1ccccc1 (stereo not shown) [Compound 13]	
≥ 30%	N#Cc1c(-c2ccccc2)cc(-c2cccs2)nc1SC(C(=O)O)c1ccccc1 (stereo not shown) [Compound 14]	
≥ 30%	CC(C)C(Sc1nc(-c2ccccc2)cc(-c2ccccc2)c1C#N)C(=O)O (stereo not shown) [Compound 25]	
0%	COC(=O)c1ccccc1CSc1ccc(CN(O)C(=O)c2ccccc2)cc1 [Compound ix, 2-{4-[(Benzoyl-hydroxy-amino)-methyl]-phenylsulfanylmethyl}-benzoic acid methyl ester]	IC50 [2, 3]: 15 µM
	O=C(O)c1ccccc1CSc1ccc(CN(O)C(=O)c2ccccc2)cc1 [E, 2-{4-[(Benzoyl-hydroxy-amino)-methyl]-phenylsulfanylmethyl}-benzoic acid]	% proliferation inhibition in HL60s ([2]; 72 hours incubation): 4%; IC50 [1]: 1.9 to 2.26 µM
	CCOC(=O)c1ccccc1SCC(=O)c1ccc(-c2ccccc2)cc1 [ethyl ester of compound 3]	IC50 ([2]; 72 hours incubation): 7.5 µM; % proliferation inhibition in HL60s ([2]; 72 hours incubation): 72%
28.5%	CCOC(=O)C(Sc1ccc(CN(O)C(=O)c2ccccc2)cc1)c1ccccc1 (stereo not shown) [iv, {4-[(Benzoyl-hydroxy-amino)-methyl]-phenylsulfanyl}-phenyl-acetic acid ethyl ester]	IC50 [2, 3]: 8.3 µM; % proliferation inhibition in HL60s ([2]; 72 hours incubation): 80%
